Earlier results in patent US6977269B1, “Method of improving animal tissue quality” (Pioneer Hi-Bred International, Inc, priority 2001, dated 2005).
Like-named read-outs stand apart in the source and are kept apart here.

Tests used:
[1] = compared with gamma-tocopherol; cited from earlier work
[2] = parameters: unit not given here; settings: cited from earlier work

Row | Compound | water solubility [1] | tissue level ([2]; 400 IU/KG per steer daily for 180 days) | tissue level ([2]; 500 IU/KG per steer daily for 126 days) | tissue level ([2]; 1300 IU/KG per steer daily for 44 days) | tissue level ([2]; 2000 IU/KG per steer daily for 100 days)
1 | Cc1c(O)cc2c(c1C)OC(C)(C(=O)O)CC2 (centres unmarked) [6-hydroxy-2,7,8-trimethylchroman-2-carboxylic acid] | more water soluble than gamma-tocopherol |  |  |  | 
2 | vitamin E |  | 3.3 | 2.5 | 3.3 | 6.1
